Key:
[1] = molecular target: T1, human V1a receptor (Homo sapiens, UniProt P37288); assay: Cellular in vitro assay for vasopressin receptor activity (aequorin luminescence), hV1a; format: cell-based; conditions: CHO cell line transfected with the human V1a receptor, agonist [Arg8]-vasopressin
T1 construct: expressed in transfected cells; host or cells: CHO K1 (constitutively expressing modified aequorin)
Excerpt: (§1) B-1. Cellular In Vitro Assay for Determining the Vasopressin Receptor Activity
(§2) The identification of agonists and antagonists of the V1a and V2 vasopressin receptors from humans and rats and also the quantification of the activity of the substances described here took place using recombinant cell lines. These cells derive originally from a hamster ovary epithelial cell (Chinese Hamster Ovary, CHO K1, ATCC: American Type Culture Collection, Manassas, Va. 20108, USA). The test cell lines constitutively express a modified form of the calcium-sensitive photoprotein aequorin, which, after reconstitution with the cofactor coelenterazine, emits light when there are increases in the free calcium concentration (Rizzuto R., Simpson A. W., Brini M., Pozzan T.; Nature 358 (1992) 325-327). In addition, the cells are stably transfected with the human or rat V1a or V2 receptors. In the case of the Gs-coupling V2 receptors, the cells are stably transfected with a further gene, which codes for the promiscuous Gα16 protein (Amatruda T. T., Steele D. A., Slepak V. Z., Simon M. I., Proc. Nat. Acad. Sci. USA 88 (1991), 5587-5591), either independently or as a fusion gene. The resulting vasopressin receptor test cells react to stimulation of the recombinantly expressed vasopressin receptors by intracellular release of calcium ions, which can be quantified by the resulting aequorin luminescence using a suitable luminometer (Milligan G., Marshall F., Rees S., Trends in Pharmaco. Sci. 17 (1996) 235-237).
(§3) Test procedure: On the day before the assay, the cells are plated out in culture medium (DMEM, 10% FCS, 2 mM glutamine, 10 mM HEPES) in 384-well microtiter plates and kept in a cell incubator (96% humidity, 5% v/v carbon dioxide, 37° C.). On the day of the assay, the culture medium is replaced by a Tyrode solution (140 mM sodium chloride, 5 mM potassium chloride, 1 mM magnesium chloride, 2 mM calcium chloride, 20 mM glucose, 20 mM HEPES), which additionally contains the cofactor coelenterazine (50 μM), and the microtiter plate is then incubated for a further 3-4 hours. The test substances in various concentrations are placed for 10 to 20 minutes in the wells of the microtiter plate before the agonist [Arg8]-vasopressin is added, and the resulting light signal is measured immediately in the luminometer. The IC50 values are calculated using the GraphPad PRISM computer program (Version 3.02).
(§4) The table below lists representative IC50 values for the compounds of the invention on the cell line transfected with the human V1a or V2 receptor: […]

[2] = molecular target: T2, human V2 receptor (Homo sapiens, UniProt P30518); assay: Cellular in vitro assay for vasopressin receptor activity (aequorin luminescence), hV2; format: cell-based; conditions: CHO cell line transfected with the human V2 receptor and Gα16, agonist [Arg8]-vasopressin
T2 construct: Galpha16 (possible fusion partner; the text says either independent or a fusion gene); expressed in transfected cells; host or cells: CHO K1 (constitutively expressing modified aequorin, co-transfected with Gα16)
T2 sequence (P30518 whole entry, the tested form may be a part): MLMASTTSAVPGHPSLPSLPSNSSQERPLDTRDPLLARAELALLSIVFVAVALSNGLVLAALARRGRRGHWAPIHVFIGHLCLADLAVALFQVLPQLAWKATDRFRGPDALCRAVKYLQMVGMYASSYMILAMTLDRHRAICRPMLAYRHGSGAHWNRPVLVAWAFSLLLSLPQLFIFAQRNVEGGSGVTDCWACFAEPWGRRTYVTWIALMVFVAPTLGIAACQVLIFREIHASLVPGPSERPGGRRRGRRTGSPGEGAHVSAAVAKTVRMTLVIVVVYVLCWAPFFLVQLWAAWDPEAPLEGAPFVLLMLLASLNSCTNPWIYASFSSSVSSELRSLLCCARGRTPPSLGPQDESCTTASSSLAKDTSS
Excerpt: as §1, §2, §3, §4

T1 sequence (P37288 whole entry): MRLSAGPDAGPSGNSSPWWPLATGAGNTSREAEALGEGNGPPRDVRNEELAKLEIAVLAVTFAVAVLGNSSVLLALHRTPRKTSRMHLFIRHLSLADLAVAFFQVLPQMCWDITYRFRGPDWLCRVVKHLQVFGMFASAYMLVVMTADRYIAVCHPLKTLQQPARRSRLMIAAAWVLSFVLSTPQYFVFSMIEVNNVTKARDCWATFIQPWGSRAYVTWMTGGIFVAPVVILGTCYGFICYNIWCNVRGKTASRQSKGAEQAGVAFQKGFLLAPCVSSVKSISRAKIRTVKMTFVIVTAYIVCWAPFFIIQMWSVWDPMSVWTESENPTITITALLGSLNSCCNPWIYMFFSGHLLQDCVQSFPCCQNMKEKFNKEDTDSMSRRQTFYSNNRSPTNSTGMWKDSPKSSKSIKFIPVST

| IC50 [1] [nM] | IC50 [2] [nM] | Compound |
| --- | --- | --- |
| 32 | 91 | COc1cccc(C(NC(=O)Cn2nc(-c3ccc(Cl)cc3)n(C[C@H](O)C(F)(F)F)c2=O)c2cccc(C(F)(F)F)c2)n1 (single isomer, unassigned) [Example 18] |
| 4.6 | 7.1 | COc1cccc(C(NC(=O)Cn2nc(-c3ccc(Cl)cc3)n(C[C@H](O)C(F)(F)F)c2=O)c2cccc(C(F)(F)F)c2)n1 (single isomer, unassigned) [Example 19] |
| 6.5 | 3.2 | Cc1noc([C@](C)(NC(=O)Cn2nc(-c3ccc(Cl)cc3)n(C[C@H](O)C(F)(F)F)c2=O)c2cccc(C(F)(F)F)c2)n1 [Example 3, 2-{3-(4-Chlorophenyl)-5-oxo-4-[(2S)-3,3,3-trifluoro-2-hydroxypropyl]-4,5-dihydro-1H-1,2,4-triazol-1-yl}-N-{(1R)-1-(3-methyl-1,2,4-oxadiazol-5-yl)-1-[3-(trifluoro-methyl)phenyl]ethyl}acetamide] |
| 8.3 | 3.3 | C[C@@](NC(=O)Cn1nc(-c2ccc(Cl)cc2)n(C[C@H](O)C(F)(F)F)c1=O)(c1cccc(C(F)(F)F)c1)c1nnn[nH]1 [Example 4, 2-{3-(4-Chlorophenyl)-5-oxo-4-[(2S)-3,3,3-trifluoro-2-hydroxypropyl]-4,5-dihydro-1H-1,2,4-triazol-1-yl}-N-{(1R)-1-(1H-tetrazol-5-yl)-1-[3-(trifluoromethyl)phenyl]ethyl}acetamide] |

Reference: patent publication US20120208852A1, “Heterocyclic-substituted 2-acetamido-5-aryl-1,2,4-triazolones and use thereof” (BAYER PHARMA AKTIENGESELLSCHAFT, priority 2009, published 2012)
